Reference: patent US8067424B2, “Selective inhibitors for cyclin-dependent kinases” (Emory University, priority 2007, dated 2011)
Like-named read-outs stand apart in the source and are kept apart here.

Assays:
[1] = system: SNB-75
[2] = system: NCI-H23; test: cells; settings: Homo sapiens
[3] = system: NCI-H460
[4] = system: OVCAR-3
[5] = SNB-75, log10 concentration −4.0
[6] = SNB-75, log10 concentration −5.0
[7] = SNB-75, log10 concentration −6.0
[8] = SNB-75, log10 concentration −7.0
[9] = SNB-75, log10 concentration −8.0
[10] = NCI-H460, log10 concentration −4.0
[11] = NCI-H460, log10 concentration −5.0
[12] = NCI-H460, log10 concentration −6.0
[13] = NCI-H460, log10 concentration −7.0
[14] = NCI-H460, log10 concentration −8.0
[15] = OVCAR-3, log10 concentration −4.0
[16] = OVCAR-3, log10 concentration −5.0
[17] = OVCAR-3, log10 concentration −6.0
[18] = OVCAR-3, log10 concentration −7.0
[19] = OVCAR-3, log10 concentration −8.0

## CC(C)c1cnn2c(NCc3ccccc3)cc(N[C@@H](CO)[C@H](O)CO)nc12 [ICEC0318, (3S)-3-(7-(Benzylamino)-3-isopropylpyrazolo[1,5-a]pyrimidin-5-ylamino)butane-1,2,4-triol]
[1]; SNB-75 (CNS Cancer)
  TGI: 4.82E−7
[1]; [5]
  Mean Optical Densities: 0.072
  Percent Growth: −83%
[1]; [6]
  Mean Optical Densities: 0.162
  Percent Growth: −62%
[1]; [7]
  Mean Optical Densities: 0.226
  Percent Growth: −47%
[1]; [8]
  Mean Optical Densities: 0.911
  Percent Growth: 101%
[1]; [9]
  Mean Optical Densities: 0.848
  Percent Growth: 88%
[2]; NCI-H23
  GI50: 260 nM
[2]; NCI-H23, read-out: LC50
  CC50: > 100000 nM
[3]; NCI-H460 (Non-Small Cell Lung Cancer)
  TGI: 1.71E−5
[3]; [10]
  Mean Optical Densities: 0.094
  Percent Growth: −15%
[3]; [11]
  Mean Optical Densities: 0.158
  Percent Growth: 5%
[3]; [12]
  Mean Optical Densities: 0.181
  Percent Growth: 7%
[3]; [13]
  Mean Optical Densities: 0.919
  Percent Growth: 80%
[3]; [14]
  Mean Optical Densities: 1.138
  Percent Growth: 102%
[4]; Homo sapiens, OVCAR-3
  GI50: 335 nM
[4]; Homo sapiens, OVCAR-3, read-out: LC50
  CC50: > 100000 nM
[4]; OVCAR-3 (Ovarian Cancer)
  TGI: >1.00E−4
[4]; [15]
  Mean Optical Densities: 0.313
  Percent Growth: 9%
[4]; [16]
  Mean Optical Densities: 0.317
  Percent Growth: 10%
[4]; [17]
  Mean Optical Densities: 0.306
  Percent Growth: 8%
[4]; [18]
  Mean Optical Densities: 0.700
  Percent Growth: 97%
[4]; [19]
  Mean Optical Densities: 0.795
  Percent Growth: 118%
